Test results taken from publication PMC3914206.

Tests used:
Assay in all cases: KiNativ chemical proteomics profiling in HeLa and PC3 cell lysates
Type in all cases: binding
[1] = target: T1, selected panels of kinases in HeLa and PC3 cell lysates (Homo sapiens, UniProt O94804); conditions: 10 uM
T1 construct: endogenous in cells; host or cells: HeLa and PC3 cell lysates

[2] = target: T2, selected panels of kinases in HeLa and PC3 cell lysates (Homo sapiens, UniProt P41240); conditions: 10 uM, peptide VSDFGLTk[…], labeling site Activation Loop
T2 construct: endogenous in cells; host or cells: HeLa and PC3 cell lysates
T2 sequence (P41240 whole entry): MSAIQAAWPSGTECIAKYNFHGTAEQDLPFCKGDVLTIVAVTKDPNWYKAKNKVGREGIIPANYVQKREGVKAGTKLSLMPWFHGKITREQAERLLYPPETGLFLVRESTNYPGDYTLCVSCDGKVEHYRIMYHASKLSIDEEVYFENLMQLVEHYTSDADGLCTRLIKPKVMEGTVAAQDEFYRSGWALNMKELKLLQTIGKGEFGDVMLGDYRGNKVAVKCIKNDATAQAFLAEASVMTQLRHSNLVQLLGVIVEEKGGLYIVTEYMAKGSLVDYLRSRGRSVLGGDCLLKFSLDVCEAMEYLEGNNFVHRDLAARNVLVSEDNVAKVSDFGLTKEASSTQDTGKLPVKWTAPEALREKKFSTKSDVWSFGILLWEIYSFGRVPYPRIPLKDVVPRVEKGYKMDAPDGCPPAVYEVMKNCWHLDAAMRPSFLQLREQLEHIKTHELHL

[3] = target: T3, selected panels of kinases in HeLa and PC3 cell lysates (Homo sapiens, UniProt P20594); conditions: 10 uM; proteome PC3; peptide […]k[…]; labeling site Lys2
T3 construct: endogenous in cells; host or cells: HeLa and PC3 cell lysates

[4] = target: T4, selected panels of kinases in HeLa and PC3 cell lysates (Homo sapiens, UniProt O95835); conditions: 10 uM; proteome HEL; peptide ALYATkTLR; labeling site Lys1
T4 construct: endogenous in cells; host or cells: HeLa and PC3 cell lysates

[5] = target: T5, selected panels of kinases in HeLa and PC3 cell lysates (Homo sapiens, UniProt Q00537); conditions: 10 uM; PCTAIRE2; peptide DLkPQNLLINEK; proteome HEL; labeling site Lys2
T5 construct: endogenous in cells; host or cells: HeLa and PC3 cell lysates
T5 sequence (Q00537 whole entry): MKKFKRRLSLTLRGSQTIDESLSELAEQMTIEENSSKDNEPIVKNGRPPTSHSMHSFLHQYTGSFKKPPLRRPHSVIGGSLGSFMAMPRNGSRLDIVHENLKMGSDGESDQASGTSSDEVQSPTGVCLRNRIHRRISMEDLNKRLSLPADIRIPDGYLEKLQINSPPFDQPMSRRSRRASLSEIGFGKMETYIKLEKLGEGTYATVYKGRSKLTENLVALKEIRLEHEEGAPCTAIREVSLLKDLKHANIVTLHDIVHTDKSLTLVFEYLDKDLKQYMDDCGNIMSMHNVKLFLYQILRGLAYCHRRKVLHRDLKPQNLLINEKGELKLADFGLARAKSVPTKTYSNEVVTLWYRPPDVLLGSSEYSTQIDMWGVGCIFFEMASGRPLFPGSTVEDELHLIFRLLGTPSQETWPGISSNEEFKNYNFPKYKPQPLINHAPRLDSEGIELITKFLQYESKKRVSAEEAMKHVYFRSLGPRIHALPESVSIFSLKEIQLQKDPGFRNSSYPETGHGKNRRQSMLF

[6] = target: T6, selected panels of kinases in HeLa and PC3 cell lysates (Homo sapiens, UniProt O60674); conditions: 10 uM; proteome HEL; peptide IGDFGLTk[…]; labeling site Activation Loop
T6 construct: endogenous in cells; host or cells: HeLa and PC3 cell lysates

[7] = target: T7, selected panels of kinases in HeLa and PC3 cell lysates (Homo sapiens, UniProt O75385); conditions: 10 uM; ULK1; peptide DLk[…]; proteome HEL; labeling site Lys2
T7 construct: endogenous in cells; host or cells: HeLa and PC3 cell lysates

[8] = target: T8, selected panels of kinases in HeLa and PC3 cell lysates (Homo sapiens, UniProt Q9UBF8); conditions: 10 uM, PI4KB, peptide […]kDK, labeling site ATP
T8 construct: endogenous in cells; host or cells: HeLa and PC3 cell lysates
T8 sequence (Q9UBF8 whole entry): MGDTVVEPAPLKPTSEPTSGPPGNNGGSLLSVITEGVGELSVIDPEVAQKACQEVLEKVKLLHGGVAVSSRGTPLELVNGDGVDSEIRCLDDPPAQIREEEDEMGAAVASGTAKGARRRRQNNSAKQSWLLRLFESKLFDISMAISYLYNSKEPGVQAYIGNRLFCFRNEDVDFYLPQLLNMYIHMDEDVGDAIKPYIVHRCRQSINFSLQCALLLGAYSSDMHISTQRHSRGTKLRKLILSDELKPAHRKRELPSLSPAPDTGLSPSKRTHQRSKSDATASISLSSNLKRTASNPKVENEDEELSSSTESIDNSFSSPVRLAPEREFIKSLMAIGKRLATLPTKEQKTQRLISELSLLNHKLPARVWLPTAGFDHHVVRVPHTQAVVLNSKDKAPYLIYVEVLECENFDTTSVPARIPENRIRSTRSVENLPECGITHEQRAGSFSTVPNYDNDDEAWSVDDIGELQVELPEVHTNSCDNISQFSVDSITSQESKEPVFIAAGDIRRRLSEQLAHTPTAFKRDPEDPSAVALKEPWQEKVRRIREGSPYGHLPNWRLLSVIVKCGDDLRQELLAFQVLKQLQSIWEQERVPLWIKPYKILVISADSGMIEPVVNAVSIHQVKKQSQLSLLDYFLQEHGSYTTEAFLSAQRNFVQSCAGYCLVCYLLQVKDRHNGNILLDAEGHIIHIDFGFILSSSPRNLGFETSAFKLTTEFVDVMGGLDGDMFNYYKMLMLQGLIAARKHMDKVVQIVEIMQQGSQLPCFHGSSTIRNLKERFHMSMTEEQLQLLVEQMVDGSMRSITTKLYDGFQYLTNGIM

[9] = target: T9, selected panels of kinases in HeLa and PC3 cell lysates (Homo sapiens, UniProt Q96GD4); conditions: 10 uM; proteome HEL; peptide SHFIVALkVLFK; labeling site Lys1
T9 construct: endogenous in cells; host or cells: HeLa and PC3 cell lysates
T9 sequence (Q96GD4 whole entry): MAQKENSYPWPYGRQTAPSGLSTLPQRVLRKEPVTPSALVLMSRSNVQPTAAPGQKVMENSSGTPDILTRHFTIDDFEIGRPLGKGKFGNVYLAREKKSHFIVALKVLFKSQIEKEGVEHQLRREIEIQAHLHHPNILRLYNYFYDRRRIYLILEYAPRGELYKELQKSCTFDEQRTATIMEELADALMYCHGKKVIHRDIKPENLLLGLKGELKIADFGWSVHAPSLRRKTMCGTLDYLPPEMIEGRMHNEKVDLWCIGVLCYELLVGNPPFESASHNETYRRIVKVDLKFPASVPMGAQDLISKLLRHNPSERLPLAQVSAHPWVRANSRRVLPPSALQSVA

[10] = target: T10, selected panels of kinases in HeLa and PC3 cell lysates (Homo sapiens, UniProt Q07912); conditions: 10 uM; proteome HEL; peptide TVSVAVk[…]; labeling site Lys1
T10 construct: endogenous in cells; host or cells: HeLa and PC3 cell lysates

[11] = target: T11, selected panels of kinases in HeLa and PC3 cell lysates (Homo sapiens, UniProt P51812); conditions: 10 uM; for % Inhibition RSK2 domain1: peptide LTDFGLSkESIDHEKK, labeling site Activation Loop
T11 construct: endogenous in cells; host or cells: HeLa and PC3 cell lysates
T11 sequence (P51812 whole entry, the tested form may be a part): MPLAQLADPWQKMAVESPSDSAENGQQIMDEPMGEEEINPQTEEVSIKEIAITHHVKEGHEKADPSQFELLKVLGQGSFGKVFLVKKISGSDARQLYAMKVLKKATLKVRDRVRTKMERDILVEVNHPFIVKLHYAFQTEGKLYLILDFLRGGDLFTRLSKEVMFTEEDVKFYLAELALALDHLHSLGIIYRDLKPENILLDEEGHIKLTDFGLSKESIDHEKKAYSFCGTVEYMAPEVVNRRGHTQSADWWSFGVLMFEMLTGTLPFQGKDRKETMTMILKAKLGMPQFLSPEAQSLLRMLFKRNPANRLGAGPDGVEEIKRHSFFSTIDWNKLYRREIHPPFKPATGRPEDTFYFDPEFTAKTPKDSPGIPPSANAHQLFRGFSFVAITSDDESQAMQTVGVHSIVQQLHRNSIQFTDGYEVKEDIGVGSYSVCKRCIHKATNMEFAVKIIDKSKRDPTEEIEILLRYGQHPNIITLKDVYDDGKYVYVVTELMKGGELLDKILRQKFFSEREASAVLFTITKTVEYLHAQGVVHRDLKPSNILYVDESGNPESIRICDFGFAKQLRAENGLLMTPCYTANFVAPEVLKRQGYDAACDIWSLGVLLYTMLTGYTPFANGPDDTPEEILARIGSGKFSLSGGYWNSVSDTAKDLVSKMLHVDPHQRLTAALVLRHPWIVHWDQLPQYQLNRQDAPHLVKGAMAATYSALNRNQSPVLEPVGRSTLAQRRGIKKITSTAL

[12] = target: T12, selected panels of kinases in HeLa and PC3 cell lysates (Homo sapiens, UniProt Q9Y616); conditions: 10 uM; proteome HEL; peptide […]k[…]; labeling site Protein Kinase Domain
T12 construct: endogenous in cells; host or cells: HeLa and PC3 cell lysates

[13] = target: T13, selected panels of kinases in HeLa and PC3 cell lysates (Homo sapiens, UniProt Q53H12); conditions: 10 uM; proteome PC3; peptide […]kGK; labeling site ATP
T13 construct: endogenous in cells; host or cells: HeLa and PC3 cell lysates

[14] = target: T14, selected panels of kinases in HeLa and PC3 cell lysates (Homo sapiens, UniProt Q9Y2U5); conditions: 10 uM, proteome PC3, labeling site Lys1
T14 construct: endogenous in cells; host or cells: HeLa and PC3 cell lysates
T14 sequence (Q9Y2U5 1-619): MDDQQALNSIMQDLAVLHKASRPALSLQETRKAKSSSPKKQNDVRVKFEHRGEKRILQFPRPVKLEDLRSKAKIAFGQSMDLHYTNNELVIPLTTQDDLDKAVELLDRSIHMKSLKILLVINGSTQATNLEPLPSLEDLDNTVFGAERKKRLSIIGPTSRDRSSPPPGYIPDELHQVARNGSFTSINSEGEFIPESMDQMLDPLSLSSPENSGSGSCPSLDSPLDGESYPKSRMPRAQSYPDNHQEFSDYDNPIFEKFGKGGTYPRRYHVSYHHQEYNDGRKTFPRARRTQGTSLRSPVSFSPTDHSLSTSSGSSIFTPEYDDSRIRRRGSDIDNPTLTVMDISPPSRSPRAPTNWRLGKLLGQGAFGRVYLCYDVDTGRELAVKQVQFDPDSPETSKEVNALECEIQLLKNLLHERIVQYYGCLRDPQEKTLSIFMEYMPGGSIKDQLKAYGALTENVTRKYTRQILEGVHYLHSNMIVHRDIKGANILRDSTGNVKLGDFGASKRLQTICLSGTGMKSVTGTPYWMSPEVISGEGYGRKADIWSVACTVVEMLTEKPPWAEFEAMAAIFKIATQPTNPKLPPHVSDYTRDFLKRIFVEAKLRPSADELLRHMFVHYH

[15] = target: T15, selected panels of kinases in HeLa and PC3 cell lysates (Homo sapiens, UniProt P00533); conditions: 10 uM, proteome PC3
T15 construct: endogenous in cells; host or cells: HeLa and PC3 cell lysates
T15 sequence (P00533 25-1210): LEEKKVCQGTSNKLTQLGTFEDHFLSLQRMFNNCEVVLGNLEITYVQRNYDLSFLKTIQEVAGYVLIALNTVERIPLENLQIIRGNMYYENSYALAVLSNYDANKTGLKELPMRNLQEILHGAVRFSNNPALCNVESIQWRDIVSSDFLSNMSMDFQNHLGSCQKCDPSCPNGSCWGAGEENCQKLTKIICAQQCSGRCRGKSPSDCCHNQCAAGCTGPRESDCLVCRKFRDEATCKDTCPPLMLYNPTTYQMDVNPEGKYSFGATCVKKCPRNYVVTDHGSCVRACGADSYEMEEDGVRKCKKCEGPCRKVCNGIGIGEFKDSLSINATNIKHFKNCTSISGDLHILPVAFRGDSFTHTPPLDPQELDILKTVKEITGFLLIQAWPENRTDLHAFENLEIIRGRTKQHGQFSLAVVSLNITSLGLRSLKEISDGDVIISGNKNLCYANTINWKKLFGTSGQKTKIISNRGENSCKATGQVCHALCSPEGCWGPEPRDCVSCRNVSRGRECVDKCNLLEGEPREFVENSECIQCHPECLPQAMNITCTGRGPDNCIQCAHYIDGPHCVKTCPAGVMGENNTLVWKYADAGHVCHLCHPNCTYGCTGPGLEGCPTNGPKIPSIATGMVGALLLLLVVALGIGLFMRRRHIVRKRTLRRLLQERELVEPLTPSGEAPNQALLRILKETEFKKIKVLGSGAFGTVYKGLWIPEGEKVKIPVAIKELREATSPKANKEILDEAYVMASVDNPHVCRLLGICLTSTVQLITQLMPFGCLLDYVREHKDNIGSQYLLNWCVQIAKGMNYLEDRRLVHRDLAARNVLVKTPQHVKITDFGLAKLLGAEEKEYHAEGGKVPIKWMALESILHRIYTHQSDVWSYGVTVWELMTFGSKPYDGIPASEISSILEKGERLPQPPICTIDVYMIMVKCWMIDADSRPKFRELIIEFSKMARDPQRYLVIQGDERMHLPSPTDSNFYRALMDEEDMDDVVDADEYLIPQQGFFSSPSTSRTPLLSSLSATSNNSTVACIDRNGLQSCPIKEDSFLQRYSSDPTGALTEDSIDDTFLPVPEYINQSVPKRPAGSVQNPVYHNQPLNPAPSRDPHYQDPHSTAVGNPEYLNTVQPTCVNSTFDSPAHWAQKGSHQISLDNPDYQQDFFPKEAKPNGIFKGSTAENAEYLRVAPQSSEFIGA

[16] = target: T16, selected panels of kinases in HeLa and PC3 cell lysates (Homo sapiens, UniProt P45985); conditions: 10 uM, proteome PC3
T16 construct: endogenous in cells; host or cells: HeLa and PC3 cell lysates
T16 sequence (P45985 1-399): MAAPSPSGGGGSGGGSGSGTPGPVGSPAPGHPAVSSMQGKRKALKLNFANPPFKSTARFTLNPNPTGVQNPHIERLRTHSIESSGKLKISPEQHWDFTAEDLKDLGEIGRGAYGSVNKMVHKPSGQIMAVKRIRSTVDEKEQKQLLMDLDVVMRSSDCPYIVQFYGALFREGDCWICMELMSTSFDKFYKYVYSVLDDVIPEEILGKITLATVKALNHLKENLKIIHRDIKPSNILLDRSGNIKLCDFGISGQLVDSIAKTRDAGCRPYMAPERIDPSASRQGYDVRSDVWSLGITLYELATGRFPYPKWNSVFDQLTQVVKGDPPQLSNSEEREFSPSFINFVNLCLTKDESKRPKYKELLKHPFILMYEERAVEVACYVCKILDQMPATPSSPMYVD

[17] = proteome HEL, peptide DLk[…], labeling site Lys2
[18] = proteome HEL, peptide […]kVIETK, labeling site Lys1
[19] = proteome PC3, peptide DLk[…], labeling site Lys2
[20] = proteome PC3, peptide […]kVIETK, labeling site Lys1
[21] = peptide DLk[…], proteome PC3, labeling site Lys2
[22] = peptide Sk[…], proteome HEL, labeling site Protein Kinase Domain
[23] = peptide Sk[…], proteome PC3, labeling site Protein Kinase Domain
[24] = peptide IPVAIkELR, labeling site Lys1
[25] = peptide ITDFGLAkLLGAEEK, labeling site Activation Loop
[26] = peptide […]kVPIK, labeling site Activation Loop
[27] = peptide DIkPSNILLDR, labeling site Lys2
[28] = peptide […]kR, labeling site Lys1

T1 sequence (O94804 whole entry): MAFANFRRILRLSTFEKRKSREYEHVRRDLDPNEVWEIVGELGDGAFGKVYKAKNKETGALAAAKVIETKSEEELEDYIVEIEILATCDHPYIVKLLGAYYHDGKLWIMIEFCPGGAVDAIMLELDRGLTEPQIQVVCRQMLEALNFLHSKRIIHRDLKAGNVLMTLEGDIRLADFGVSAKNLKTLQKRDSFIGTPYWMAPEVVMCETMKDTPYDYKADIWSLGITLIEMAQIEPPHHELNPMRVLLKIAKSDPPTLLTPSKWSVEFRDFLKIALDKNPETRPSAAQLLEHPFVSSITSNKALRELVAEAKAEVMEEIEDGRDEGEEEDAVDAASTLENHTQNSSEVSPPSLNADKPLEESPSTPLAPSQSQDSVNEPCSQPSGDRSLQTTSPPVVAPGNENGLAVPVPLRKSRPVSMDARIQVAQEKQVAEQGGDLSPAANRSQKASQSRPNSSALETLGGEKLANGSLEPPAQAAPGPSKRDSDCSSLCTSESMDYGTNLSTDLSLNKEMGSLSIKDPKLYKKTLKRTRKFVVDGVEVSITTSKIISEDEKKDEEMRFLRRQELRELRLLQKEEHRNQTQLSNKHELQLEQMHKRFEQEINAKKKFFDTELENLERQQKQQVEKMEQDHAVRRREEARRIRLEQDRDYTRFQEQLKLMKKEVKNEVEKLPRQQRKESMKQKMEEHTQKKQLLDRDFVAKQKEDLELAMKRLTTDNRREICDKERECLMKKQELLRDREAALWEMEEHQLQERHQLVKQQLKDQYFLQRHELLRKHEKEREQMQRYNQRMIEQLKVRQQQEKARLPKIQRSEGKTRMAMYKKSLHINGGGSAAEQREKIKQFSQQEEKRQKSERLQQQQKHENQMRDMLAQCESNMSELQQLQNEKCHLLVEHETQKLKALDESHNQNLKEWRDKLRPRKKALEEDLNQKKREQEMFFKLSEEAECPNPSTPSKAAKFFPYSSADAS

SMILES	% Inhibiton, LOK [1, 17] [%]	% Inhibiton, LOK [1, 18] [%]	% Inhibiton, LOK [1, 19] [%]	% Inhibiton, LOK [1, 20] [%]	% Inhibiton, CSK ([2]; proteome HEL) [%]	% Inhibiton, CSK ([2]; proteome PC3) [%]	% Inhibiton, ANPb [3] [%]	% Inhibiton, LATS1 [4] [%]	% Inhibition PCTAIRE2 [5] [%]	% Inhibiton, JAK2 domain2 [6] [%]	% Inhibition ULK1 [7] [%]	% Inhibition PI4KB ([8]; proteome HEL) [%]	% Inhibition PI4KB ([8]; proteome PC3) [%]	% Inhibiton, AurB [9] [%]	% Inhibiton, ACK [10] [%]	% Inhibition RSK2 domain1 ([11]; proteome HEL) [%]	% Inhibition RSK2 domain2 [11, 21] [%]	% Inhibition RSK2 domain2 [11, 22] [%]	% Inhibition RSK2 domain2 [11, 23] [%]	% Inhibiton, IRAK3 [12] [%]	also measured
COc1cc(C(=O)N2CCC(N3CCN(C)CC3)CC2)ccc1Nc1ncc2c(n1)N(C1CCCC1)c1ccccc1C(=O)N2C [Compound 25, 11-cyclopentyl-2-((2-methoxy-4-(4-(4-methylpiperazin-1-yl)piperidine-1-carbonyl)phenyl)amino)-5-methyl-5H-benzo[e]pyrimido[5,4-b][1,4]diazepin-6(11H)-one]	3.2	2.1	8.0	1.9	6.5	-4.8	-11.4	7.2	4.8	-9.0	6.4	-21.6	-6.1	65.8	43.5	1.2	-4.3	1.3	1.9	40.5	% Inhibiton, AGK [13]: 1.8%; % Inhibiton, MAP3K2 ([14]; peptide ELAVk[…]): 15.5%; % Inhibiton, MAP3K2 ([14]; peptide […]k[…]): 23.7%; % Inhibiton, EGFR [15, 24]: -6.4%; % Inhibiton, EGFR [15, 25]: -31.1%; % Inhibiton, EGFR [15, 26]: -10.1%; % Inhibiton, MAP2K4 [16, 27]: -7.6%; % Inhibiton, MAP2K4 [16, 28]: -9.0%
CCOc1cc(C(=O)N2CCC(N3CCN(C)CC3)CC2)ccc1Nc1ncc2c(n1)N(C1CCCC1)c1ccccc1C(=O)N2C [Compound 26]	-13	24.4	11.4	10	14.3	-6.9	24.3	6.8	1.4	6.5	-5.1	-1.9	3.6	42.5	20.1	7.2	-0.5	7.4	-14.6	37	% Inhibiton, AGK [13]: 15.3%; % Inhibiton, MAP3K2 ([14]; peptide ELAVk[…]): -11.2%; % Inhibiton, MAP3K2 ([14]; peptide […]k[…]): -12.3%; % Inhibiton, EGFR [15, 24]: -3.3%; % Inhibiton, EGFR [15, 25]: -5.7%; % Inhibiton, EGFR [15, 26]: -8.1%; % Inhibiton, MAP2K4 [16, 27]: -14.4%; % Inhibiton, MAP2K4 [16, 28]: -7.3%
